Like-named read-outs stand apart in the source and are kept apart here.
Experiments:
[1] = tested on: F100TpM, a bovine lymphocyte cell line infected by T. parva; assay: 3H-thymidine incorporation growth assay on F100TpM cells (screen at 1 μM and IC50 titration); details: for TI (CC50/IC50), therapeutic index: CC50 on Con A blasts divided by IC50 on F100TpM;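 on all read-outs here: growth inhibition compared against wells lacking compound, run in triplicate, and CC50 derived from 3H-thymidine uptake by PBMC stimulated with ConA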
Experimental: (§1) All the MMV compounds were initially tested for inhibitory activity on the growth of F100TpM, a bovine lymphocyte cell line infected by T. parva. […] All compounds were tested in triplicate.
(§2) The radiolabeled precursor ^3H-thymidine is incorporated into DNA strands during cell replication and radioisotope incorporation is often used as a measure of cell proliferation.
(§3) IC50 values were calculated using the Graph Pad Prism 7 software (GraphPad Software, Inc., La Jolla, CA), and average values of radio-isotope incorporation in wells with and without compound on the growth of F100TpM cells. The CC50 values were calculated using ^3H-thymidine incorporation values determined on the growth of PBMC stimulated with ConA. The therapeutic index of a compound was calculated by dividing the CC50 value with the IC50 value.

[2] = in vitro; details: bovine, CC50 (μM) Con A blasts
Experimental: as §1, §2, §3

[3] = tested on: P. falciparum gametocyte NF54-late stage; parameters: method as in Van Voorhis et al., 2016; details: at 5 μM; ref Van Voorhis et al., 2016; cited from earlier work
[4] = tested on: P. falciparum 3D7 asexual blood stage; details: cited from earlier work
[5] = tested on: Trypanosoma cruzi; parameters: method as in Van Voorhis et al., 2016; details: at 5 μM; ref Van Voorhis et al., 2016; cited from earlier work
[6] = tested on: U87; parameters: method as in Van Voorhis et al., 2016; details: at 5 μM; only one of nine cell lines tested; ref Van Voorhis et al., 2016; cited from earlier work
[7] = 3H-thymidine incorporation toxicity assay on ConA-stimulated uninfected bovine PBMC (CC50); details: bovine, uninfected bovine PBMC stimulated with ConA (Con A blasts), CC50 (μM) Con A blasts, uninfected bovine PBMC stimulated with ConA, 48 h compound, 3H-thymidine incorporation
Experimental: as §1, §2, §3

[8] = tested on: bovine PBMC stimulated with ConA (Con A blasts); assay: as above; details: read-out: CC50 (μM) Con A blasts; uninfected bovine PBMC stimulated with ConA, 48 h compound, 3H-thymidine incorporation
Experimental: as §1, §2, §3

[9] = tested on: Plasmodium berghei ookinete; parameters: method as in Van Voorhis et al., 2016; details: at 10 μM; ref Van Voorhis et al., 2016; cited from earlier work
[10] = parameters: method as in MMV data sheet; details: at 5 uM; ref MMV data sheet; cited from earlier work
[11] = parameters: method as in MMV data sheets; details: at 5 uM; ref MMV data sheets; cited from earlier work
[12] = tested on: bovine PBMC stimulated with ConA (Con A blasts)
Experimental: as §1, §2, §3

[13] = tested on: Theileria annulata infected cell lines; parameters: method as in Hostettler et al., 2016; details: ref Hostettler et al., 2016; cited from earlier work
[14] = tested on: human foreskin fibroblast control cells; parameters: method as in Hostettler et al., 2016; details: T. annulata assay; ref Hostettler et al., 2016; cited from earlier work
[15] = tested on: T. annulata gene TaSP; parameters: method as in Hostettler et al., 2016; details: ref Hostettler et al., 2016; cited from earlier work
[16] = read-out: IC50 (μM) F100TpM, T. parva infected lymphocyte cell line, 48 h compound, 3H-thymidine incorporation
[17] = source GNF, ref ChEMBL_NTD, read-out: CHEMBL EC50
[18] = Bos taurus, Lymphocyte, read-out: IC50 (μM) F100TpM, T. parva infected lymphocyte cell line, 48 h compound, 3H-thymidine incorporation
[19] = given in Comment because of solubility issue at 5 uM, ref MMV data sheets
[20] = source GSK, ref ChEMBL_NTD, read-out: CHEMBL EC50
[21] = MMV Malaria Box data sheet, ref MMV data sheets
[22] = MMV Malaria Box data sheet, ref MMV data sheets, read-out: EC50_nM

With `Cc1nc(Nc2ncc(C(=O)Nc3c(C)cccc3Cl)s2)cc(N2CCN(CCO)CC2)n1` [Dasatinib, dasatinib, reference compound] the “TI (CC50/IC50), therapeutic index” value [1] was over 2000 and the CC50 at 48 h [2] was over 10 µM.
For `COC(=O)Nc1nc2ccc(C(=O)c3ccccc3)cc2[nH]1` [MMV003152, Mebendazole, reference compound], the “TI (CC50/IC50), therapeutic index” value [1] was under 0.001, the IC50 [1, 16] was 0.36 µM and the IC50 ([1]; read-out: IC50 (μM) F100TpM, T. parva infected lymphocyte cell line, 48 h compound, 3H-thymidine incorporation, listed as mebendazole) was under 1 µM. The CC50 at 48 h [2] was under 0.001 µM.
For `COc1ccc2nc(C)cc(Nc3cccc(O)c3)c2c1` [MMV008212], the “growth inhibition of P. falciparum gametocyte NF54-late stage” value [3] is given as 91%, the “percent_inh @ 5 uM” value ([4]; MMV Malaria Box sheet, ref MMV data sheets) is given as 98% and the EC50 ([4]; MMV Malaria Box sheet, ref MMV data sheets, read-out: EC50_nM) is given as 0.969 µM. The “growth inhibition of P. falciparum 3D7 asexual blood stage” value ([4]; at 5 μM, ref Van Voorhis et al., 2016) was 98%, the EC50 [4, 17] was 0.228 µM and the IC50 [1, 18] was 0.78 µM. The “TI (CC50/IC50), therapeutic index” value [1] was over 12, the “growth inhibition of Trypanosoma cruzi” value [5] was 100% and the “cell death, U87 cell line” value [6] was 76%. The CC50 at 48 h [7] was over 5 µM, the CC50 [8] was over 10 µM and the “growth inhibition of Plasmodium berghei ookinete” value [9] was 76%.
In the case of `CCOc1cccc(C(=O)Nc2ccc(-c3nc4ccccc4[nH]3)cc2)c1` [MMV019202], the “% inh. At 2.5 uM” value ([4]; Comment column, ref MMV data sheet) is listed as 97%, the EC50 ([4]; value(s) per source (GSK, GNF, StJude), separated by semicolon, ref ChEMBL-NTD, read-out: CHEMBL EC50) is listed as 1.01 µM and the “Solubility (Comment)” value [10] is listed as “Solubility issue at 5 uM”.
For `COc1ccc(-c2nonc2NC(=O)c2cccc(Cl)c2)cc1OC` [MMV020660], the “% inh. At 2.5 uM” value [4, 19] is given as 97%, the EC50 [4, 20] is given as 0.876 µM and the “Comment: solubility” value [11] is given as “Solubility issue at 5 uM”.
With `COc1ccc(-c2cnc3ccc(N4CCCC4)nn23)cc1OC` [MMV023985] the CC50 [12] was under 0.001 µM, the “TI (CC50/IC50), therapeutic index” value [1] was under 0.001 and the IC50 [1, 16] was 0.52 µM.
For `CCOC(=O)c1cnc2c(CC)cccc2c1O` [MMV498479], the EC50 ([4]; ChEMBL-NTD value per source (GNF, GSK, StJude), several values in a cell follow the order of the sources, read-out: CHEMBL EC50) is listed as 1.66 µM, the IC50 [1, 18] is listed as 0.05 µM and the “TI (CC50/IC50), therapeutic index” value [1] is listed as 2.6. It also gave a CC50 at 48 h [7] of 0.13 µM.
In the case of `CCOc1cc(Cl)c(C(C)NC(=O)c2ccccc2)cc1OCC` (stereo not drawn) [MMV665800], the “percent_inh @ 5 uM” value [4, 21] is given as 96%, the EC50 [4, 22] is given as 1.37 µM and the EC50 [4, 20] is given as 0.875 µM. For the same compound, the IC50 [1, 18] was 0.49 µM, the “TI (CC50/IC50), therapeutic index” value [1] was 1.08 and the CC50 at 48 h [7] was 0.53 µM.
In the case of `COc1ccc2c(=O)cc(C(Cl)(Cl)Cl)oc2c1` [MMV665820], the “percent_inh @ 5 uM” value [4, 21] is listed as 94%, the EC50 [4, 22] is listed as 0.52 µM and the EC50 ([4]; source StJude, ref ChEMBL_NTD, read-out: CHEMBL EC50) is listed as 15 µM. For the same compound, the IC50 [1, 18] was 0.15 µM, the “TI (CC50/IC50), therapeutic index” value [1] was 1.67 and the CC50 at 48 h [7] was 0.25 µM. For the same compound, the “inhibitory activity on T. annulata cell lines” value [13] was “inhibitory”, the “viability of human foreskin fibroblast control cells” value [14] was “did not impair viability” and the “lowering of relative expression of T. annulata gene TaSP” value [15] was “failed to lower the relative expression of T. annulata gene TaSP by 50%”.
In the case of `CCCc1cc(O)c2c3c(c(=O)oc2c1)CN(C)CC3` [MMV665841], the “percent_inh @ 5 uM” value [4, 21] is listed as 97%, the EC50 [4, 22] is listed as 0.146 µM and the EC50 [4, 17] is listed as 0.554 µM. For the same compound, the EC50 [4, 20] was 0.873 µM, the IC50 [1, 18] was 0.36 µM and the “TI (CC50/IC50), therapeutic index” value [1] was 1.83. For the same compound, the CC50 at 48 h [7] was 0.66 µM.
For `CC(=O)c1ccc(NC(=O)CSc2nc(-c3ccccc3Cl)ns2)cc1` [MMV666124], the “% inh. At 2.5 uM” value [4, 19] is given as 88%, the EC50 [4, 20] is given as 1.13 µM and the “Comment: solubility” value [11] is given as “Solubility issue at 5 uM”.
For `CO[C@@H](C(=O)N1Cc2[nH]nc(NC(=O)c3ccc(N4CCN(C)CC4)cc3)c2C1)c1ccccc1` [MMV676600], the CC50 [12] was under 0.001 µM, the “TI (CC50/IC50), therapeutic index” value [1] was under 0.001 and the IC50 [1, 16] was 0.55 µM.
In the case of `CNC(=O)c1nn(C)c2c1C(C)(C)Cc1cnc(Nc3ccc(N4CCN(C)CC4)cc3)nc1-2` [MMV676602], the “TI (CC50/IC50), therapeutic index” value [1] is reported as 0.86, the IC50 [1, 16] is reported as 0.35 µM and the CC50 [8] is reported as 0.3 µM.
With `Cc1nn(C)c(C)c1NS(=O)(=O)c1c(Cl)cc(-c2ccnc(N3CCNCC3)c2)cc1Cl` [MMV688180] the “TI (CC50/IC50), therapeutic index” value [1] was under 0.001, the IC50 [1, 16] was 0.97 µM and the CC50 [8] was under 0.001 µM.
With `N=C(N)Nc1ccc(-c2ccc(-c3ccc(N=C(N)N)c(Cl)c3)o2)cc1Cl` [MMV688271] the CC50 [12] was 0.56 µM, the “TI (CC50/IC50), therapeutic index” value [1] was 0.95 and the IC50 [1, 16] was 0.59 µM.
For `CC(=O)OCC1OC([S-])C(OC(C)=O)C(OC(C)=O)C1OC(C)=O.CCP(CC)CC.[Au+]` (stereo not drawn) [MMV688978, Auranofin, reference compound], the “TI (CC50/IC50), therapeutic index” value [1] was 0.74, the IC50 [1, 16] was 0.54 µM and the IC50 ([1]; read-out: IC50 (μM) F100TpM, T. parva infected lymphocyte cell line, 48 h compound, 3H-thymidine incorporation, listed as auranofin) was under 1 µM. The CC50 [8] was 0.4 µM.

Source: PMC6376154 (International Journal for Parasitology: Drugs and Drug …, 2019)
